Source: paper PMC12203697, “Bioactive constituents from the edible seaweed Halymenia hawaiiana (Rhodophyta)” (Pharmaceutical Biology, 2025)
Converted amounts (≈) assume the structure as drawn.

Legend:
[1] = tested on: S. marcescent; assay: Antibacterial MIC, broth microdilution with resazurin; assay type: cell-based, Serratia marcescens; details: Serratia marcescens, Gram-negative, read-out: MIC
Description: (§1) Methicillin-resistant Staphylococcus aureus (MRSA), methicillin-susceptible S. aureus (MSSA), and Gram-negative clinical isolates of bacteria [Escherichia coli (9637) and Serratia marcescens ATCC 13880] were used for this study. […] MSSA HBP10, MSSA LUU7, MSSA R113, S. aureus ONE9, and MSSA POB2 were isolated in Hawaiʻi (Gerken et al. [2021]). Mueller Hinton Broth (MHB, GTIN:00382902979630, Becton, Dickinson and Company, Franklin Lakes, NJ, USA) and Mueller Hinton Agar (MHA, GTIN:00382902252504, Becton, Dickinson and Company, Franklin Lakes, NJ, USA,) were used for bacterial inoculation. MRSA was a pathogen strain causing hospital-acquired infections in 1982. This strain easily acquires resistance to antibiotics, such as vancomycin. MSSA strains isolated from the Island of Hawaiʻi included: Honolʻii Beach Park (HBP10) carry the genes erm(C), aph(3′)-III, and mecA, which provide resistance to macrolide, aminoglycoside, and beta-lactam antibiotics, respectively; Wailuku River (LUU7) which contains the blaZ gene (beta-lactam resistance) (Gerken et al. [2021]). Richardson’s Beach Park (R113) and Onekahakaha (ONE9) which is known for its virulence factors (hlgA, hlgB, hlgC, lukD, and lukE).
(§2) The minimum inhibitory concentrations (MICs) were determined using a two-fold serial dilution method with MHB following the recommendations of the Clinical and Laboratory Standards Institute (CLSI [2012]; Elshikh et al. [2016]). In brief, serial two-fold dilutions of the samples in DMSO were mixed with MHB in a 96-well microplate. Then, 50 µL of bacteria suspension was added to each well, resulting in a final concentration of 1 × 10^4 colony-forming units/well. The plates were incubated at 35–37 °C for 18–24 hr. After incubation, 10 µL of 0.18% resazurin (Cat. No. R7017, Sigma-Aldrich, USA) was added to each well (Elshikh et al. [2016]). The MIC was assessed within 2–3 hr after the addition of resazurin. All antimicrobial assays were performed in triplicate, using vancomycin (Cat. No. SBR00001, Sigma-Aldrich, USA) and gentamicin (Cat. No. G1397, Sigma-Aldrich, USA) as standard controls.

[2] = tested on: RAW 264.7 cells; assay: SRB cellular viability in RAW 264.7 cells; assay type: cell-based, mouse; details: under the NO and ROS/RNS assay conditions
Description: The nitrite concentration in the culture medium was measured to indicate nitric oxide (NO) production as previously described (Min et al. [2009]). The murine macrophage RAW 264.7 cell line was obtained from ATCC, Manassas, VA, USA, and maintained in Dulbecco’s modified Eagle’s medium supplemented with 10% heat-inactivated FBS (Cat. No. A5670801, Gibco BRL Co, Grand Island, NY, USA), penicillin G (100 units/mL) (Cat. No. P7794, Sigma-Aldrich, USA), streptomycin (100 µg/mL) (Cat. No. S9137, Sigma-Aldrich, USA), and L-glutamine (2 mM) (Cat. No. 25030081, Gibco BRL Co, Grand Island, NY, USA). In brief, RAW 264.7 cells were seeded at a density of 4 × 10^4 cells/well in phenol red-free media (Cat. No. 11835030, Gibco, USA) in a 96-well plate, and incubated in a humidified incubator with 5% CO2 at 37 °C for 24 hr. Following this, the cells were treated with increasing concentrations of samples ranging from 10–50 μg/mL for 4 hr, after which the cells were treated with 1 μg/mL LPS for 20 h. L-N-Monomethyl Arginine citrate (L-NMMA) (Cat. No. NC0190932, Cayman Chemical, Michigan, USA), a non-selective inhibitor of NOS, was used as positive control. The concentration of nitric oxide production was assessed using the Griess reagent, which consists of a 1:1 (v/v) mixture of 1% sulfanilamide (Cat No. A13001, Alfa Aesar, Massachusetts, USA) in H3PO4 and N-(1-naphthyl)ethylenediamine dihydrochloride (Cat. No. 102397, MP Biomedicals, USA). Absorbance was recorded with a microplate reader (SynergyMx, BioTeK, Winooski, VT, USA) at 540 nm. A standard curve was created using sodium nitrite (1–100 μM) (Cat. No. 44227, Alfa Aesar, Massachusetts, USA). […]
To measure the formation of intracellular ROS and RNS, we utilized the fluorogenic dye 2′,7′-dichlorodihydrofluorescein diacetate (Cat. No. 4091-99-0, H2DCF-DA, Abcam, Boston, MA, USA). […] The relative fluorescent intensity of the cells was measured using a fluorescence plate reader (Synergy H1, BioTeK, Winooski, VT, USA) with excitation/emission at 485 nm/535 nm. […]

[3] = tested on: S. aureus CART817; assay: Antibacterial MIC, broth microdilution with resazurin; assay type: cell-based; details: Staphylococcus aureus; S. aureus CART817, Gram-positive; read-out: MIC
Description: as §2

[4] = tested on: MSSA R113; assay: as above; assay type: cell-based; details: Staphylococcus aureus; MSSA R113, Gram-positive; read-out: MIC
Description: as §1, §2

[5] = tested on: S. aureus ONE9; assay: as above; assay type: cell-based; details: Staphylococcus aureus; S. aureus ONE9, Gram-positive; read-out: MIC
Description: as §1, §2

| SMILES | MIC [1] [µg/mL] | cytotoxicity in RAW 264.7 cells (in words) [2] | MIC [3] [µg/mL] | MIC [4] [µg/mL] | MIC [5] [µg/mL] |
| --- | --- | --- | --- | --- | --- |
| CC(C)CCC[C@@H](C)[C@H]1CCC2[C@@]34C=C[C@]5(C[C@@H](O)CC[C@]5(C)C3CC[C@@]21C)OO4 (stereo partly shown) [Compound 10, 7-dehydrochoresterol peroxide] | 64 (≈ 154 µM) | without inducing cytotoxicity | 128 (≈ 307 µM) | 128 (≈ 307 µM) | 128 (≈ 307 µM) |
| CC(C)CCC[C@@H](C)[C@H]1CCC2[C@]1(C)CC=C1[C@]23C=C[C@]2(C[C@@H](O)CC[C@]12C)OO3 (stereo partly drawn) [Compound 11, (3β-5α-8α)5,8-epidioxycholesta-6,9(1)-diene-3-ol] | 64 (≈ 154 µM) | without inducing cytotoxicity | 128 (≈ 309 µM) | 128 (≈ 309 µM) | 128 (≈ 309 µM) |
| Nc1ccn([C@H]2C[C@H](O)[C@@H](CO)O2)c(=O)n1 [Compound 1, deoxycytidine] | 128 (≈ 563 µM) |  | 128 (≈ 563 µM) | 128 (≈ 563 µM) | 128 (≈ 563 µM) |
| CC(C)CCC[C@@H](C)[C@H]1CC[C@H]2[C@@H]3CC=C4C[C@@H](O)CC[C@]4(C)[C@H]3CC[C@]12C [Compound 9, cholesterol] | 128 (≈ 331 µM) | without inducing cytotoxicity | 128 (≈ 331 µM) | 128 (≈ 331 µM) | 128 (≈ 331 µM) |
